Experimental findings from US20260176267A1, “PREPARATION OF IMIDAZOPYRIDINE AND IMIDAZOPYRIDAZINE DERIVATIVES AS NOVEL DIACYLGLYCERIDE O-ACYLTRANSFERASE 2 INHIBITORS” (Merck Sharp & Dohme LLC, priority 2022, published 2026) are described below.

In this assay the target is T1, human DGAT2 (hDGAT2) (Homo sapiens, UniProt Q96PD7).
T1 construct: made in house; host or cells: Sf-9 insect cells (baculovirus), membrane fraction
T1 sequence (Q96PD7 1-388): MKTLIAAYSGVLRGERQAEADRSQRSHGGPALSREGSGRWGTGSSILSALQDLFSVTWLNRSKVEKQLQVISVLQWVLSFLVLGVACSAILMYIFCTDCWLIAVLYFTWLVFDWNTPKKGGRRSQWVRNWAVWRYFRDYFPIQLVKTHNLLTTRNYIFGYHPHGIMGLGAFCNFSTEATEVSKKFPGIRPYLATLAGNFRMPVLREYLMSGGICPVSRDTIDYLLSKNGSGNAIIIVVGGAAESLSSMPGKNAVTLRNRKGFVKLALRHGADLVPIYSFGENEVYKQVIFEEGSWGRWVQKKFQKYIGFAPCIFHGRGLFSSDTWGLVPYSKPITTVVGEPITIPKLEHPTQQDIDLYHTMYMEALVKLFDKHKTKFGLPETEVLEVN
Briefly: DGAT2 Enzymatic Activity Assay. The class given is biochemical. The settings on record: membrane prep of Sf-9 cells expressing hDGAT2; 13C18-triolein product by LC/MS/MS; 25 μM diolein, 5 μM 13C oleoyl-CoA, rt. In outline: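 At room temperature, DGAT2 activity in baculovirus-infected Sf-9 membrane preps (human enzyme, untagged) is measured as formation of ^13C18-triolein. Product is extracted and measured by positive-mode LC/MS/MS, with the ratio to spiked ^13C21-triolein giving inhibition and IC50.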

As to `CC1(NC(=O)c2nc3ccc(Oc4ncccc4OCC(F)(F)F)cn3c2C(F)(F)F)CCS(=O)(=O)CC1` [Example 136, N-(4-methyl-1,1-dioxo-thian-4-yl)-6-[[3-(2,2,2-trifluoroethoxy)-2-pyridyl]oxy]-3-(trifluoromethyl)imidazo[1,2-a]pyridine-2-carboxamide], the midpoint of inhibition, the IC50, lay at 146 nM.

On to `CC1(NC(=O)c2nc3ccc(Oc4ncccc4OCC(F)(F)F)cn3c2CO)CCS(=O)(=O)CC1` [Example 137, 3-(hydroxymethyl)-N-(4-methyl-1,1-dioxo-thian-4-yl)-6-[3-(2,2,2-trifluoroethoxy)pyridine-2-yl]oxy-imidazo[1,2-a]pyridine-2-carboxamide], for which the midpoint of inhibition, the IC50, lay at 11 nM.

In the case of `Cc1c(C(=O)NC2(C)CCS(=O)(=O)CC2)nc2cc(C#N)c(Oc3ncc(Cl)cc3OCC(F)(F)F)cn12` [Example 138, 6-[5-chloro-3-(2,2,2-trifluoroethoxy)pyridine-2-yl]oxy-7-cyano-3-methyl-N-(4-methyl-1,1-dioxo-thian-4-yl)imidazo[1,2-a]pyridine-2-carboxamide], half-maximal inhibition (IC50) was put at 25 nM.

For `CC1(NC(=O)c2nc3ccc(Oc4ncc(F)cc4OCC(F)(F)F)c(Cl)n3c2Cl)CCS(=O)(=O)CC1` [Example 139, 3,5-dichloro-6-[[5-fluoro-3-(2,2,2-trifluoroethoxy)-2-pyridyl]oxy]-N-(4-methyl-1,1-dioxo-thian-4-yl)imidazo[1,2-a]pyridine-2-carboxamide], the IC50 (as a rule, the point on the concentration scale where inhibition reaches its midpoint) came to 0.7 nM.

`CC1(NC(=O)c2nc3ccc(Oc4ncc(F)cc4OCC(F)(F)F)c(Cl)n3c2Cl)CS(=O)(=O)C1` [Example 140, 3,5-dichloro-6-[[5-fluoro-3-(2,2,2-trifluoroethoxy)-2-pyridyl]oxy]-N-(3-methyl-1,1-dioxo-thietan-3-yl)imidazo[1,2-a]pyridine-2-carboxamide]: half-maximal inhibition (IC50) was put at 2.1 nM.

With `Cc1c(Oc2ncc(Cl)cc2OCC(F)(F)F)ccc2nc(C(=O)NC3(C)CCS(=O)(=O)CC3)c(Cl)n12` [Example 141, 3-chloro-6-[[5-chloro-3-(2,2,2-trifluoroethoxy)-2-pyridyl]oxy]-5-methyl-N-(4-methyl-1,1-dioxo-thian-4-yl)imidazo[1,2-a]pyridine-2-carboxamide], 2.6 nM corresponded to half-maximal inhibition (IC50).

Turning to `Cc1c(Oc2ncc(Cl)cc2OCC(F)(F)F)ccc2nc(C(=O)NC3(C)CCS(=O)(=O)CC3)c(F)n12` [Example 142, 6-[[5-chloro-3-(2,2,2-trifluoroethoxy)-2-pyridyl]oxy]-3-fluoro-5-methyl-N-(4-methyl-1,1-dioxo-thian-4-yl)imidazo[1,2-a]pyridine-2-carboxamide], half-maximal inhibition (IC50) was put at 3.5 nM.

As for `Cc1c(Oc2ncc(Cl)cc2OCC(C)(F)F)ccc2nc(C(=O)NC3(C)CCS(=O)(=O)CC3)c(F)n12` [Example 143, 6-[[5-chloro-3-(2,2-difluoropropoxy)-2-pyridyl]oxy]-3-fluoro-5-methyl-N-(4-methyl-1,1-dioxo-thian-4-yl)imidazo[1,2-a]pyridine-2-carboxamide], the IC50 was 37 nM.

With `Cc1cnc(Oc2ccc3nc(C(=O)NC4(C)CCS(=O)(=O)CC4)c(C)n3c2)c(OCC(F)(F)F)c1` [Example 144, 3-methyl-N-(4-methyl-1,1-dioxo-thian-4-yl)-6-[[5-methyl-3-(2,2,2-trifluoroethoxy)-2-pyridyl]oxy]imidazo[1,2-a]pyridine-2-carboxamide], the IC50 came out at 8.9 nM.

As for `Cc1c(C(=O)NC2(C)CCS(=O)(=O)CC2)nc2ccc(Oc3ncc(C4CC4)cc3OCC(F)(F)F)cn12` [Example 145, 6-[[5-cyclopropyl-3-(2,2,2-trifluoroethoxy)-2-pyridyl]oxy]-3-methyl-N-(4-methyl-1,1-dioxo-thian-4-yl)imidazo[1,2-a]pyridine-2-carboxamide], inhibition was half-maximal at 133 nM (IC50).

`Cc1c(C(=O)NC2(C)CCS(=O)(=O)CC2)nc2ccc(Oc3ncc(C(C)(C)O)cc3OCC(F)(F)F)cn12` [Example 146, 6-[[5-(1-hydroxy-1-methyl-ethyl)-3-(2,2,2-trifluoroethoxy)-2-pyridyl]oxy]-3-methyl-N-(4-methyl-1,1-dioxo-thian-4-yl)imidazo[1,2-a]pyridine-2-carboxamide] yielded an IC50 of 102 nM.
